Experimental data as given in patent US8367666B2 (priority 2004, dated 2013).
Like-named read-outs stand apart in the source and are kept apart here.

Tests used:
CB1 receptor [1] = target: T1, CB1 receptor (Homo sapiens, UniProt P21554); assay: Human cannabinoid receptor bonding inhibition test ([3H]CP55940), CB1; assay type: binding; parameters: expressed in transfected cells; membrane fraction
CB2 receptor [2] = target: T2, CB2 receptor (Homo sapiens, UniProt P34972); assay: Human cannabinoid receptor bonding inhibition test ([3H]CP55940), CB2; assay type: binding; parameters: expressed in transfected cells; membrane fraction
CB1 receptor [3] = target: T1, CB1 receptor; assay: cAMP formation inhibition experiment through a cannabinoid receptor (forskolin stimulation), CB1; assay type: cell-based; parameters: expressed in transfected cells; host or cells: CHO cells
Experimental: A compound being tested was added in the CHO cell which had mad human CB1 or CB2 receptor reveal and incubated for 15 minutes, and then forskolin (the final concentration 4 μM, and manufactured by SIGMA Corp.) was added and the mixture was incubated for 20 minutes. After the reaction had been stopped by adding 1M hydrochloric acid, the amount of cAMP in the supernatant was measured with the use of Cyclic AMP kit (made by the CIS Diagnostic Corp.).

CB2 receptor [4] = target: T2, CB2 receptor; assay: cAMP formation inhibition experiment through a cannabinoid receptor (forskolin stimulation), CB2; assay type: cell-based; parameters: expressed in transfected cells; host or cells: CHO cells
[5] = [3H]CP55940 0.5 nM, membrane preparation of CHO cells expressing CB1, Ki calculated from IC50, read-out: Binding activity (nM) CB1
[6] = read-out: Agonist activity (nM) CB1
[7] = read-out: Binding activity (nM) CB1
[8] = read-out: Agonist activity (nM) CB2

T1 sequence (P21554 whole entry): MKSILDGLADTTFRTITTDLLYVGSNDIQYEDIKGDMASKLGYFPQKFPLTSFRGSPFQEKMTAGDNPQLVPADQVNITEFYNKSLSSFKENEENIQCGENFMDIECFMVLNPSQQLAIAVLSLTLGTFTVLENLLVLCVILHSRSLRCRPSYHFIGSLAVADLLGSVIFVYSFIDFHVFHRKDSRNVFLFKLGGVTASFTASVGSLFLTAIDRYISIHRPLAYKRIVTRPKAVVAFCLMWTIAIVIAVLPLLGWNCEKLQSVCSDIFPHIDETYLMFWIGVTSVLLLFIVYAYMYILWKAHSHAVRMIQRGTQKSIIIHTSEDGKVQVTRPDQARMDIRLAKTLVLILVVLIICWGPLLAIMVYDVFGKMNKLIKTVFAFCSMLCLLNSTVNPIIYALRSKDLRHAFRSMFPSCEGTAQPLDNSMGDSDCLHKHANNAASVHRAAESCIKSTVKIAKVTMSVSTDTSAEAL
T2 sequence (P34972 whole entry): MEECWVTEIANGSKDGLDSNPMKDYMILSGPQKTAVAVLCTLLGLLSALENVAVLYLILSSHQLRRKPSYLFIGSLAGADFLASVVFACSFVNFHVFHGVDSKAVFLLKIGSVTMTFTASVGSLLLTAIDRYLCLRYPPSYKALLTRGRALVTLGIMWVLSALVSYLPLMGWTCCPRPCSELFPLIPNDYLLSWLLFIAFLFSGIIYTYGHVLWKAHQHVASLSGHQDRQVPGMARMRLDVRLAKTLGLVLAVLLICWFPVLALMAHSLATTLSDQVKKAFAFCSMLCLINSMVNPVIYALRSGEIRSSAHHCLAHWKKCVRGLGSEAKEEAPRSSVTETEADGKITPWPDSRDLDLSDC

| Compound | Ki (CB1 receptor [1]; [5]) | Ki (CB2 receptor [2]) | IC50 (CB1 receptor [3]) | IC50 (CB2 receptor [4]) | Ki (CB1 receptor [1]) | IC50 (CB1 receptor [3]; [6]) | Ki (CB2 receptor [2]; [3H]CP55940 0.5 nM, membrane preparation of CHO cells expressing CB2, Ki calculated from IC50, read-out: Binding activity (nM) CB2) | IC50 (CB1 receptor [3]; inhibition of forskolin (4 μM)-stimulated cAMP formation, CHO cells expressing human CB1, read-out: Agonist activity (nM) CB1) | Ki (CB1 receptor [1]; [7]) | IC50 (CB2 receptor [4]; [8]) |
| --- | --- | --- | --- | --- | --- | --- | --- | --- | --- | --- |
| CCCCn1c2c(cc(C(=O)N[C@H](CC(=O)O)CC(C)C)c1=O)CCCCCC2 [Compound X-138] | > 2000 nM | 42 nM | > 2000 nM | 30 nM | – | – | – | – | – | – |
| CCCCn1c2c(cc(C(=O)NC3(CC(=O)O)CCCCC3)c1=O)CCCCCC2 [Compound X-157] | 270 nM | 3.4 nM | 268 nM | < 2 nM | – | – | – | – | – | – |
| CCCCn1c(CCC)c(CC)cc(C(=O)NC2(CC(=O)O)CCCCC2)c1=O [Compound X-174] | > 2000 nM | 8.9 nM | > 2000 nM | 9.8 nM | – | – | – | – | – | – |
| CCCCn1c(CCC)c(CC)cc(C(=O)NC(CC)(CC)CC(=O)O)c1=O [Compound X-196] | > 2000 nM | 31 nM | > 2000 nM | 45 nM | – | – | – | – | – | – |
| CCc1c(C)cc(C(=O)NCC2(CC(=O)O)CCCCC2)c(=O)n1Cc1ccc(F)cc1 [Compound X-197] | – | 41 nM | – | 7.2 nM | 1260 nM | 708 nM | – | – | – | – |
| CCCCn1c2c(cc(C(=O)NC(CCC(=O)O)CC(C)C)c1=O)CCCCCC2 (stereo not drawn) [Compound X-202] | 1180 nM | 46 nM | > 2000 nM | 81 nM | – | – | – | – | – | – |
| CCc1c(C)cc(C(=O)Nc2nc(CC(=O)O)cs2)c(=O)n1Cc1ccc(F)cc1 [Compound X-222] | 1620 nM | 43 nM | > 2000 nM | 57 nM | – | – | – | – | – | – |
| CCc1c(C)cc(C(=O)NC2(C(=O)O)CCCCCCCCC2)c(=O)n1Cc1ccc(F)cc1 [Compound X-231] | > 2000 nM | 38 nM | > 2000 nM | 35 nM | – | – | – | – | – | – |
| CCCCn1c2c(cc(C(=O)NC3(C(=O)O)CCCCCCCCC3)c1=O)CCCCCC2 [Compound X-232] | > 2000 nM | 15 nM | > 2000 nM | 29 nM | – | – | – | – | – | – |
| CCCCn1c(CCC)c(CC)cc(C(=O)NC2(CC(=O)O)CCCC2)c1=O [Compound X-233] | > 2000 nM | 24 nM | > 2000 nM | 15 nM | – | – | – | – | – | – |
| CCc1c(C)cc(C(=O)NC2(CC(=O)O)CCCC2)c(=O)n1Cc1ccc(F)cc1 [Compound X-234] | 482 nM | 4 nM | 375 nM | 6.1 nM | – | – | – | – | – | – |
| CCCCn1c2c(cc(C(=O)NC3(CC(=O)O)CCCC3)c1=O)CCCCCC2 [Compound X-235] | – | 3.7 nM | – | 4.7 nM | 950 nM | 270 nM | – | – | – | – |
| CCc1c(C)cc(C(=O)NC2(C(=O)O)CCCCCCC2)c(=O)n1Cc1ccc(F)cc1 [Compound X-239] | 1420 nM | 10 nM | > 2000 nM | 3.6 nM | – | – | – | – | – | – |
| O=C(NC1(C(=O)O)CCCCCCC1)c1cc2c(n(CC3CCCCC3)c1=O)CCCCCC2 [Compound X-240] | 793 nM | – | – | < 2 nM | – | – | 6.2 nM | 468 nM | – | – |
| CCCCn1c(CCC)c(CC)cc(C(=O)NC2(C(=O)O)CCCCCC2)c1=O [Compound X-241] | > 2000 nM | 57 nM | > 2000 nM | 26 nM | – | – | – | – | – | – |
| O=C(NC1(C(=O)O)CCCCC1)c1cc2c(n(Cc3ccc(F)c(F)c3)c1=O)CCCCCC2 [XI-017] | 441 nM | 6.6 nM | 127 nM | 11 nM | – | – | – | – | – | – |
| CCc1c(C)cc(C(=O)Nc2nc(CC(=O)O)cs2)c(=O)n1Cc1ccc(F)c(F)c1 [XI-025] | – | 54 nM | > 2000 nM | – | – | – | – | – | 1360 nM | 209 nM |
| CCc1c(C)cc(C(=O)NC2(C(=O)O)CCCCC2)c(=O)n1Cc1ccc(F)c(F)c1 [XI-027] | – | 54 nM | > 2000 nM | – | – | – | – | – | 1360 nM | 209 nM |
